Data set [1] has as its system ERK1/2 nuclear translocation. The experiment in a line: Determination of ERK1/2 localization by fluorescence microscopy after TPA stimulation. In kind it is cell-based. The note with it: for inhibition of stimulated ERK1/2 nuclear translocation: 1 μM, 2 h. As to the method: Determination of Protein Localization by Fluorescence Microscopy:
Indicated cells were seeded on coverslips (coated with 0.001% w/v poly-L-lysine or not, depending on the cell line) at 50% confluency. After the indicated treatment, cells were fixed in 4% paraformaldehyde/PBS for 20 minutes on an ice surface, permeabilized with 0.1% Triton X-100/PBS for 5 minutes at 23° C., then blocked in 2% BSA/PBS for 30 minutes at 23° C. The fixed cells were sequentially incubated with appropriate antibodies (in 2% BSA/PBS, 1.5 hour), washed 3 times with PBS^−/−, and followed by incubation with either Cy-2-conjugated or rhodamine-conjugated secondary antibodies (1:200) and with DAPI ([…]; 1:100) in 2% BSA/PBS for 45 minutes. Slides were analyzed and photographed by a fluorescence microscope (Olympus BX51, ×40). Background correction, and contrast adjustment of raw data images were performed using Photoshop (Adobe, CA, USA).
The effect of Z56 was compared with that of the inhibitory effect of EPE peptide on nuclear translocation of ERK1/2.
The effects of the compounds on ERK1/2 nuclear translocation were evaluated in three cell lines (HeLa cells and two melanoma cell lines, A2185 and A2352), by treating the cells with each compound for two hours, and determining nuclear translocation using fluorescent anti-ERK antibodies, according to procedures described hereinabove.

The next data set deals with A2185 and A2352 cells. Kind of data set: Viability assay (methylene blue), two BRAF melanoma cells. In kind it is cell-based. The note with it: for cytotoxicity at 1 µM: both melanoma cell lines, read-out: reduction of viability. As to the method:
FIGS. 10A, 10B and 10C present data from screening the 20 analogs of Compound Z2 (“C-compounds”) showing three particularly active anti-proliferative compounds. […] A2185 and A2352 cells were grown in 1% FCS containing DMSO (0.1%), EPE peptide, Compound Z56, Compound Z2 or C-compounds (10 μM), for 72 hours. Compounds were categorized according to activity: (1) active, below 40%; (2) moderate activity, below 80%; (3) not active, above 80%. […] A2185 and A2352 cells were grown in 1% FCS containing DMSO (0.1%), EPE peptide (10 μM), compounds Z56, Z2 or selected C-compounds (3 μM), for 72 hours. Empty squares/circles represent individual data points of proliferation. Full squares/circles indicate average proliferation of 2 independent experiments in triplicate±SE. Bold horizontal line defines arbitrary activity threshold of activity below 40%. FIG. 10C presents dose response curves of active C-compounds compounds. A2185 and A2352 were grown in 1% FCS media containing DMSO (0.1%), EPE peptide, Z56, Z2 (10 μM) or compounds C17, C22 and C23 (0.1-10 μM), for 72 hours. […] Cell viability was measured by staining with methylene blue. Data presented as percentage of DMSO control. Bar graphs represent average of 2 independent experiments done in triplicates ±SE.
FIG. 13 presents a graph showing the effect of analogs of Compound C17 (“D-compounds”) on cell viability at a concentration of 10 μM. A2185 and A2352 cells were grown in 1% FCS media containing DMSO (0.1%) EPE peptide (10 μM), Compounds Z56, Z2, C17 (10 μM) as controls, and D-Compounds (10 μM), for 72 hours. Viable cells were measured by staining with methylene blue. Bar graphs represent average of 2 independent experiments done in triplicates. Data presented as percentage of DMSO proliferation ±standard error.
FIG. 14 presents a graph showing the effect of analogs of Compound C17 (“D-compounds”) on cell viability at a concentration of 1 μM. A2185 and A2352 cells were grown in 1% FCS media containing DMSO (0.1%), EPE peptide (10 μM), Compounds Z56, Z2 and C17 (1 and 10 μM) as controls, and D-compounds (1 μM), for 72 hours. Viable cells were measured by staining with methylene blue. Bar graphs represent average of 2 independent experiments done in triplicates. Data presented as percentage of DMSO proliferation ±standard error.
Cells were seeded at low confluence into 24, 48 or 96-well plates in complete medium. After 24 hours, medium was replaced by 1% FCS (fetal calf serum) containing appropriate treatments. Fresh medium containing the same agents was replaced every day. After 72 or 96 hours of treatment, cells were fixed with 4% formaldehyde overnight at 23° C., washed once with 0.1 M borate buffer (pH 8.5) for 10 minutes, and stained with of 1% methylene blue in 0.1 M borate buffer (pH 8.5) for 30 minutes. Excess stain was washed out with distilled water. Color was extracted by adding 0.1 M HCl (3 hours, 23° C.), and absorbance measured at 595 nm in an ELISA reader. For time course experiments, attached cells were fixed and measured at 0, 24, 48, 72 and 96 hours. For dose-response experiments, cells were treated with indicated concentrations of reagent, fixed and stained after 72 hours as above.
The ability of the selected compounds to reduce cell viability of two BRAF melanoma cells (A2185 and A2352) was evaluated. Initially, all compounds were assayed at a relatively high concentration of 10 μM.

In data set [2] the test system is melanoma cells (A2185, A2352, A2024, A2058 and LOX-IMVI). Kind of data set: Dose-response analysis (IC50 assay), melanoma cells. The format is cell-based. As to conditions: calculated by interpolation in the dose response curves. As to the method: (§1) FIG. 15A presents dose response curves of compounds C17, D3, D11 and D14 on 8 cancer cells. Five melanoma cell lines (A2185, A2352, A2024, A2058 and LOX-IMVI), HeLa, HCT-116 and PC3 cells were grown in 1% FCS media containing either DMSO (0.1%), EPE peptide (10 μM), or Compounds C17, D3, D11, D14 at the indicated concentrations, for 72 hours. Viable cells were quantified by staining with methylene blue. Data presented as percentage of DMSO control ±SE of triplicates. […] IC50 values were calculated by interpolation in the curves in FIG. 15A. […] Bar graphs represent average viability respect to DMSO control ±SE of triplicates.
(§2) Cell Viability (IC50) Assay:
(§3) Cells were seeded at a density of 4000 cells per well into 96-well plates in complete medium. After 24 hours, medium was replaced by 1% FCS (fetal calf serum) containing appropriate treatments. Fresh medium containing the same agents was replaced every day. After 96 hours, cell viability was assessed using the CellTiter-Glo reagent (Promega; Madison, WI). IC50 values were determined using GraphPad Prism.

The next data set deals with PC3 cells. The experiment in a line: Dose-response analysis, PC3 cells. The note with it: dose response, 72 hours. In kind it is cell-based. As to the method: as §1, §2, §3
The test system of another data set is LOX-IMVI melanoma cells. The experiment in a line: Dose-response analysis (IC50), LOX-IMVI cells. The format is cell-based. The note with it: Homo sapiens. As to the method:
as §1, §2, §3

Data set [3] has as its system anti-tubercular activity (unknown mechanism). As to conditions: Ananthan et al., Tuberculosis (Edinb) 2009; cited from earlier work.
Another data set concerns mammalian cells. As to conditions: Ananthan et al., Tuberculosis (Edinb) 2009; cited from earlier work.
The test system of data set [4] is A2185, A2352, A2024, A2058, LOX-IMVI, HeLa, HCT-116 and PC3 cells. The experiment in a line: Dose-response analysis (IC50 assay) in eight cancer cell lines. The format is cell-based. The note with it: for potency in reducing cell viability relative to Compound D14 / potency in reducing cell viability relative to Compound C17: 72 hours; for potency in reducing cell viability relative to Compound D14: in seven of the eight cell lines; for potency in reducing cell viability relative to Compound C17: in six of the eight tested cell lines. As to the method: as §1
Cell Viability (IC50) Assay: […]

A further data set has as its system A2058 cells. Kind of data set: Dose-response analysis, A2058 cells. In kind it is cell-based. The note with it: dose response, 72 hours. As to the method:
as §1, §2, §3

Setting [5] is: TPA 100 nM, 15 minutes, A2185 cells.

Entries after “also recorded” stand apart in the source; their conditions may differ.

Turning to `O=S1(=O)C=CC2ON=C(c3ccc(C(F)(F)F)cc3)C21` (centres unmarked) [Compound C17], the “relative potency in blocking nuclear accumulation of ERK1/2” value in [1] (10 μM, 2 hours, A2185 cells) was “more potent than Compounds C22 and C23”. In addition, in data set [1] (10 μM, 2 hours, TPA 100 nM, 15 minutes, A2185 and A2352 cells), the “nuclear accumulation of ERK1/2 upon TPA stimulation” value is given as “inhibited”. For the same compound, in the data set with A2185 and A2352 cells (3 μM, 72 hours, 1% FCS), the “cell viability at lower concentration” value was “consistently strong anti-viability effect”. Besides, the viability at 10 µM in the data set on A2185 and A2352 cells (10 μM, 72 hours, 1% FCS, active below 40%, moderate below 80%, not active above 80%, read-out: cell viability (percentage of DMSO control)) was less than 40%. Besides, in the data set with A2185 and A2352 cells (0.1-10 μM, 72 hours, 1% FCS), the “cell viability, dose response” value is given as “dose dependent manner; also recorded: as potent in reducing the viability of A2352 cells”. In addition, the “activity in SAR summary of FIGS. 10A-10C (cell viability)” value in the data set on A2185 and A2352 cells (comparison with Compound Z2 or named analog) is listed as “surprisingly superior to the ester group of Compound Z2”. Also, the “concentration at which activity is already exhibited” value in the data set on A2185 and A2352 cells (dose response 0.1-10 μM, 72 hours) was 0.3 µM. The IC50 in the data set with A2185 and A2352 cells (potency summarised from viability results of Example 6) was roughly 1 µM; in [2], 0.4 to 1.3 µM; with LOX-IMVI melanoma cells, roughly 0.02 µM. The “viability of PC3 cells” value in the data set with PC3 cells was “significantly decreased”. In data set [3], the “anti-tubercular activity in high-throughput screening” value is listed as “hit”. The “cytotoxic activity in mammalian cells” value with mammalian cells was “without presenting cytotoxic activity”.
On to `O=S1(=O)C=CC2ON=C(c3cc(Cl)cc(Cl)c3)C21` (centres unmarked) [Compound D3], for which the “inhibition of stimulated ERK1/2 nuclear translocation” value (from here on “inhibition”) in data set [1] (setting [5]) is “convincing activity; also recorded: most potent of the three tested compounds”. Besides, in the data set on A2185 and A2352 cells (72 hours, 1% FCS), the cytotoxicity at 1 µM is no more than 90%. Moreover, in data set [4], the “potency in reducing cell viability relative to Compound D14” value is listed as “slightly more potency than Compound D14” and the “potency in reducing cell viability relative to Compound C17” value is recorded as “significantly more potency than Compound C17”. The “selectivity (pattern of effect across cell types compared with EPE peptide)” value (“selectivity” for short) in data set [4] (eight cancer cell lines) was “more selective than Compounds C17 and D14”. Moreover, the half-maximal inhibitory concentration (IC50) in data set [2] is 0.04 to 0.25 µM. Moreover, in the data set on PC3 cells, the “viability of PC3 cells” value was “did not”. The “reducing the viability of A2058 cells” value in the data set on A2058 cells was “strong effect”.
For `O=S1(=O)C=CC2ON=C(c3ccc(Cl)c(Cl)c3)C21` (centres unmarked) [Compound D11], the “inhibition” value in data set [1] (setting [5]) is “convincing activity”. The cytotoxicity at 1 µM with A2185 and A2352 cells (72 hours, 1% FCS) was no more than 90%. For the same compound, in [4], the “potency in reducing cell viability relative to Compound D14” value is reported as “slightly more potency than Compound D14” and the “potency in reducing cell viability relative to Compound C17” value is “significantly more potency than Compound C17”. Also, in [4] (eight cancer cell lines), the “selectivity” value is “more selective than Compounds C17 and D14”. Further, in data set [2], the concentration for half-maximal inhibition (IC50) is 0.04 to 0.25 µM. The “viability of PC3 cells” value in the data set on PC3 cells is recorded as “did not”. In addition, the “reducing the viability of A2058 cells” value with A2058 cells is “strong effect”.
In the case of `O=S1(=O)C=CC2ON=C(c3c[nH]c4ccccc34)C21` (centres unmarked) [Compound D14], in data set [1] (setting [5]), the “inhibition” value was “convincing activity”. Further, the cytotoxicity at 1 µM with A2185 and A2352 cells (72 hours, 1% FCS) was no more than 90%. The “potency in reducing cell viability relative to Compound C17” value in [4] was “significantly more potency than Compound C17”. Also, in data set [4] (eight cancer cell lines), the “IC50 values compared to Compound C17” value is reported as “significantly lower IC50 values compared to Compound C17” and the “selectivity” value is listed as “less selective”. Moreover, in the data set with PC3 cells, the “viability of PC3 cells” value is “significantly decreased”.

Source of the values: US12286439B2, “Inhibitors of ERK nuclear translocation” (Yeda Research and Development Co. Ltd., priority 2018, dated 2025).
